Laboratory results reported in US7157017B2, “Fungicidal compositions and methods using cyanodithiocarbimates” (Buckman Laboratories International, Inc., priority 2003, dated 2007).

Assays:
[1] = tested on: Aspergillus niger; assay: Inhibition of growth of Aspergillus niger in liquid MSY medium (96-well microplate, OD 686 nm); format: cell-based; details: MSY broth, four days at 28° C. in the dark, complete inhibition = OD≦0.05, test levels given as ppm
Procedure: The antifungal activities of compounds of formula (I) were measured by determining the inhibition of growth of Aspergillus niger in a standard liquid medium. The liquid growth medium is described as a solution of mineral salts+yeast extract (MSY). The MSY broth was prepared as described in ASTM G 21–70^1, and amended with glucose (10 g liter^−1) and yeast extract (1 g liter^−1). An aliquot (250 μL) of sterile medium was dispensed into each test well of a standard 96-well microplate (Corning No. 430247). Stock solutions of test compounds were prepared by dissolving the materials in 9:1 (v/v) solution of acetone:methanol. Appropriate volumes of stock solutions were added to the test wells in order to achieve the desired ppm levels. Each test well (plus controls) was then inoculated with 5 μL of a standardized suspension of Aspergillus niger. The cell suspension was prepared by suspending viable cells from a slant of potato dextrose agar into sterile, deionized water. The suspension was then adjusted to provide OD686=0.28. This density contains approximately 2.5×10^7 CFU mL^−1 (CFU=Colony Forming Units). The microplates were incubated in the dark for four days at 28° C. The optical density for each well at 686 nm was then recorded automatically using a SpectraMax 340 microplate reader (Molecular Devices Corp., Sunnyvale, Calif.). All wells were visually inspected in order to corroborate data from the instrument. […] The results are shown in Table 2. ^1“Standard Practice for Determining Resistance of Synthetic Polymeric Materials to Fungi”,ASTM Standards on Materials and Environmental Microbiology, 1st. Ed., 1987.

[2] = tested on: fungal growth (mold) on wet blue hide; assay: Performance testing in a tannery: wet blue test pieces in mold-infested tropical chamber; details: methyl carbitol-based formulation containing 30% w/w, 0.1% by weight in float (300 ppm active ingredient), chrome tanning of cowhides; 47 wet blue pieces, four weeks in tropical chamber
Procedure: A methyl carbitol-based formulation containing 30% w/w of hexyl chloromethyl cyanodithiocarbimate was tested in a commercial tannery. Eighty-two cowhides were subjected to a standard production run using chrome tanning. The test formulation was added to the float (tanning liquid) at a concentration of 0.1% by weight providing a concentration of 300 ppm of active ingredient hexyl chloromethyl cyanodithiocarbimate. At the completion of the tanning process, five tanned hides (“wet blues”) were chosen randomly. Numerous test pieces (12×14 cm) were cut from the butt, belly, and neck regions of each of the five hides. A total of 47 test pieces of wet blue obtained were coded relative to hide source and position, and each piece was suspended in a tropical chamber. The tropical chamber was a mold-infested humidity chamber designed to severely challenge the test fungicide applied during the tanning process. Each test piece was visually examined on a weekly basis for four weeks for the presence or absence and extent of possible mold growth. […] This is the type of performance desired of a fungicide by the hide tanning industry.

SMILES	Antifungal MIC [1]	presence or absence and extent of mold growth on test pieces [2]
CCCCCCSC(=NC#N)SCCl [Cl, —(CH2)5CH3, hexyl chloromethyl cyanodithiocarbimate]	0.2	free of fungal growth
CC(C)SC(=NC#N)SCCl [Cl, —CH2(CH3)2, isopropyl chloromethyl cyanodithiocarbimate]	0.5	–
CCCSC(=NC#N)SCCl [Cl, —(CH2)2CH3, propyl chloromethyl cyanodithioicarbimate]	0.5	–

Continued, in another order:

Antifungal MIC [1]	SMILES	presence or absence and extent of mold growth on test pieces [2]
1.0	N#CN=C(SCCl)SCc1ccccc1 [Cl, —CH2C6H5, benzyl chloromethyl cyanodithiocarbimate]	–
1.0	C=CCSC(=NC#N)SCCl [Cl, —CH2CHC═CH2, allyl chloromethyl cyanodithiocarbimate]	–
